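A five-concentration, 48-hour dose response in 96-well plates underlies each endpoint, interpolated linearly between surrounding concentrations. GI50 marks 50% less growth. TGI is the concentration that stops growth completely.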 *1 amine or outer side, *2 acyl side, *3 side chain or, on linkers, in order; H or OH if unused. Where a SMILES comes first, the peptide text is derived from it. Bridges are numbered along the chain shown (N, C = ends). [ ]: non-standard residue; d: D form. ξ: configuration not given here. X4 = CCC(C)C(N[*:1])C(O)CC(=O)O[C@H](C(=O)C(C)C(=O)[*:2])C(C)C; NMeY = CN[C@@H](Cc1ccc(O)cc1)C(=O)O; ξNMeL = CNC(CC(C)C)C(=O)O; ξT = CC(O)C(N)C(=O)O
What was measured:
Assay in all cases: DTP human tumour cell line panel, 48 h
DU-145 prostate = tested on: DU-145 prostate
HS 578T breast = tested on: HS 578T breast
MDA-MB-231 breast = tested on: MDA-MB-231 breast
PC-3 prostate = tested on: PC-3 prostate
MDA-MB-435 = tested on: MDA-MB-435
DLD-1 colon = tested on: DLD-1 colon
DMS 114 small cell lung = tested on: DMS 114 small cell lung
LXFL 529 NSCLC = tested on: LXFL 529 NSCLC
M19-MEL melanoma = tested on: M19-MEL melanoma

| Structure (SMILES) | GI50 (DU-145 prostate) | TGI (DU-145 prostate) | GI50 (HS 578T breast) | TGI (HS 578T breast) | GI50 (MDA-MB-231 breast) | TGI (MDA-MB-231 breast) | GI50 (PC-3 prostate) | TGI (PC-3 prostate) | GI50 (MDA-MB-435) | TGI (MDA-MB-435) | TGI (DLD-1 colon) | TGI (DMS 114 small cell lung) | TGI (LXFL 529 NSCLC) | TGI (M19-MEL melanoma) |
| --- | --- | --- | --- | --- | --- | --- | --- | --- | --- | --- | --- | --- | --- | --- |
| COc1ccc(/C=C/c2cc(OC)c(OC)c(OC)c2)cc1NC(=O)/C=C/c1ccc(F)cc1 | 4.05 µM | > 40.5 µM | 3.79 µM | > 100 µM | 5.8 µM | > 100 µM | 1.98 µM | > 100 µM |  |  |  |  |  |  |
| C=CC(=O)N1CCCC(n2nc(-c3ccc(Oc4ccccc4)cc3)c3c(N)ncnc32)C1 (centres undefined) | 1.89 µM | 17.4 µM | 7.66 µM | 45.7 µM | 8.42 µM | 23.6 µM | 10 µM | 24.2 µM | 7.85 µM | 22.5 µM |  |  |  |  |
| CC(=O)N/C(=C\c1ccc(/C=C(\NC(C)=O)c2nc3ccc(Cl)cc3[nH]2)cc1)c1nc2ccccc2[nH]1 |  |  |  |  |  |  |  |  |  |  | > 100 µM | > 100 µM | > 100 µM | > 100 µM |
| Cc1ccc(C(=O)c2oc3ccc4c(C)cc(=O)oc4c3c2C)cc1 | 9.7 µM | > 100 µM | 19.4 µM | > 100 µM | 11.1 µM | > 100 µM | 5.64 µM | > 100 µM | 5.95 µM | > 100 µM |  |  |  |  |
| COc1cc(OC)c(/C=C/c2ccc3ccccc3[n+]2C)c(OC)c1 | 0.944 µM | 15.3 µM | 0.638 µM | 19.3 µM | 1.76 µM | 12.1 µM | 1.82 µM | 17.3 µM | 0.342 µM | 1.53 µM |  |  |  |  |
| CN(C(=O)c1ccc(Cl)s1)C(=S)N(C)C(=O)c1ccc(Cl)s1 |  | > 10 µM |  | > 10 µM |  | > 10 µM |  | > 10 µM |  |  |  |  |  |  |
| NC(CCCCNC(=O)OCc1ccccc1)C(=O)NC(CCCCNC(=O)OCc1ccccc1)C(=O)ON1C(=O)CCC1=O (centres undefined) |  |  |  | > 100 µM |  | > 100 µM |  | > 100 µM |  |  |  |  |  |  |
| CN(C)c1ccc(/C=C2\Oc3cc(O)ccc3C2=O)cc1 |  | > 100 µM |  | > 100 µM |  | > 100 µM |  | > 100 µM |  | > 100 µM |  |  |  |  |
| COC(=O)CCC/C=C\C[C@H]1C=CC(=O)/C1=C/C[C@@H](O)CCc1cccc(C(F)(F)F)c1 | 2.59 µM | 10 µM | 12.2 µM | 50 µM | 4.65 µM | 17.1 µM | 2.63 µM | 7.6 µM | 2.01 µM | 6.15 µM |  |  |  |  |
| O=C(Nc1ccc(Cl)cc1)Nc1ccc(Cl)c(Cl)c1 | 4.08 µM | > 100 µM | 4.58 µM | 85 µM | 2.34 µM | 7.65 µM | 2.97 µM | > 100 µM | 3.4 µM | > 100 µM |  |  |  |  |
| O=C(Nc1ccccc1)c1ccc(Cl)c([N+](=O)[O-])c1 |  |  |  |  |  |  |  |  |  |  | > 100 µM | 33.2 µM | 18.5 µM | 34.3 µM |
| COc1cc(-c2nc3ccc(C)cc3[nH]2)ccc1OCC(=O)N=Nc1c(O)[nH]c2ccccc12 | 2.05 µM | 4.39 µM | 2 µM | 4.77 µM | 1.64 µM | 3.1 µM |  |  | 1.63 µM | 3 µM |  |  |  |  |
| CCC(=O)c1cn(C)c(=O)c2ccccc12 |  |  |  |  |  |  |  |  |  |  | > 100 µM | > 100 µM | > 100 µM |  |
| COc1ccc2c(c1)C(=O)CC(N)C2 (centres undefined) |  | > 100 µM |  | > 100 µM |  | > 100 µM |  | > 100 µM |  | > 100 µM |  |  |  |  |
| COc1cc(OC2OC(C)C(O)C(O)C2O)cc2oc(-c3ccc(O)cc3)c(CC=C(C)C)c(=O)c12 (centres undefined) | 34.3 µM | > 100 µM | 24 µM | > 100 µM | 6.38 µM | 21.4 µM | 8.32 µM | 28.4 µM | 20.5 µM | 59.9 µM |  |  |  |  |
| COc1ccc2c(c1)sc1nc(-c3ccccc3)c(-c3ccsc3)n12 | 3.45 µM | > 100 µM | > 100 µM | > 100 µM | 5.46 µM | > 100 µM | 4.02 µM | > 100 µM |  |  |  |  |  |  |
| Clc1nc(Oc2ccccc2)nc(-c2cn(-c3ccccc3)c3ccccc23)n1 | 8.6 µM | 21.8 µM | 4.66 µM | 18.7 µM | 5.33 µM | 15.7 µM | 5.03 µM | 19.3 µM | 6.49 µM | 23.1 µM |  |  |  |  |
| O=C(Nc1ccccc1C(F)(F)F)c1cccc(NC2=C(Cl)C(=O)N(Cc3ccccc3)C2=O)c1 | 8.19 µM | 44 µM | 8.27 µM | 28.5 µM | 3.86 µM | 21.4 µM | 8.78 µM | > 53 µM | 4.2 µM | > 33 µM |  |  |  |  |
| COc1cc2nc(-c3ccc(C(F)(F)F)cc3)cc(OCCCN3CCOCC3)c2cc1OC | 10.1 µM | 24 µM | 2.25 µM | 9.24 µM | 0.498 µM | 4.51 µM | 2.19 µM | 16.5 µM | 1.2 µM | 3.57 µM |  |  |  |  |
| CC(C)c1ccc(Cc2cnc(NC(=O)c3cc(Br)cs3)s2)cc1 | 3.67 µM | > 100 µM | 2.48 µM | 58.2 µM | 3.09 µM | 19.4 µM | 2.23 µM | > 100 µM | 0.355 µM | 2.16 µM |  |  |  |  |
| CCCCCCC/C=C/[C@H]1O[C@]23C(=O)C[C@@]4(C[C@@H](OC5OC(CO)C(O)C(O)C5O)C[C@@H]4[C@H]2C=C1C)OC3=O (some centres undefined) | 4.59 µM | 9.87 µM | 9.04 µM | > 33.3 µM | 6.47 µM | 16.5 µM | 3.81 µM | 12.9 µM | 2.02 µM | 7.68 µM |  |  |  |  |
| CCC(C)C1NC(=O)C(NC(=O)C(CC(C)C)N(C)C(=O)[C@@H]2CCCN2)C(C)OC(=O)[C@H](Cc2ccc(OC)cc2)N(C)C(=O)[C@@H]2CCCN2C(=O)[C@H](CC(C)C)NC(=O)C(C)C(=O)[C@H](C(C)C)OC(=O)CC1O (some centres undefined) (H-P[ξNMeL][ξT][X4]LP[NMeY](Me); ester 3-C) |  |  |  |  |  |  |  | 0.0115 µM |  | 0.0032 µM |  |  |  |  |
| Nc1nc(-c2cccc([N+](=O)[O-])c2)c(Br)c(=O)[nH]1 |  | > 100 µM |  | > 100 µM |  | > 100 µM |  | > 100 µM |  | > 100 µM |  |  |  |  |
| O=c1oc2ccccc2c(O)c1/C=N\c1nc(-c2ccccc2)cs1 |  | 30.8 µM |  | 89.7 µM |  | 54.8 µM |  | 31.2 µM |  | 20.6 µM |  |  |  |  |
| COc1cc(-c2cnn(C)c2)ccc1Nc1ncc2ccnc(N[C@@H](C)C(C)(C)C)c2n1 | > 100 µM | > 100 µM | > 79 µM | > 100 µM | 13.4 µM | > 100 µM | > 96.1 µM | > 100 µM | > 75.1 µM | > 100 µM |  |  |  |  |

From PubChem BioAssay (NCI)
